What was measured:
TRPM8 = test: Antisense knockdown of TRPM8, DRG immunoblots (TRPM8:GAPDH); assay type: in vivo, rat; conditions: for TRPM8:GAPDH ratio in DRG: intrathecal oligonucleotide infusion
Excerpt: Antisense and mis-sense oligonucleotides were 22-mers with phosphorothioate bonds at the last two positions at 5′ and 3′ ends (MWG Biotech, Ebersberg, Germany). Antisense extended from base −10 to base +12 relative to the start of the open reading frame for the rat TRPM8 gene: 5′ C*T*CGAAGGACATCTTGCCGT*G*G 3′, where * represents phosphorothioate linkages. Mis-sense was designed with 4 inversions of C/G or A/T as appropriate at residues 3, 11, 14 and 22, preserving overall G/C content. BLAST searches of both oligonucleotides indicated no significant complementarity to any known gene sequence. 14-day or 7-day osmotic minipumps (for CCI experiments or naïve electrophysiology experiments respectively—Alzet Minipump, models 2002, 2001; Charles River, UK) containing oligonucleotides (1 μg/μl in sterile saline) were connected to canulae inserted under the dura of the spinal cord to level L5/6 and produced a predicted infusion rate of 0.5 μl/h. CCI surgery was performed at the same time as minipump implantation. Sensory tests were carried out to assess the time-course of behavioural sensitisation in animals which had also undergone a CCI injury. Icilin was applied topically rather than intrathecally so as to prevent any interference with the infusion canula. […]
Ipsilateral or contralateral L4-L6 dorsal root ganglia (DRG) were taken from CCI animals (n=6), and from […]. […] Blots were incubated with rabbit polyclonal antibodies to TRPM8 (either an antibody raised against TRPM8 residues 278-292 and 1090-1104 (human); 1:500; Abcam Ltd., Cambridge, UK or occasionally an antibody raised against TRPM8 residues 656-680 (rat); 1:100; Phoenix Peptides, Belmont, Calif., USA), a rabbit polyclonal antibody to TRPV1 (1:250, Chemicon International Ltd, Harrow, UK) or a mouse monoclonal antibody to glyceraldehyde-3-phosphate dehydrogenase (GAPDH, 1:750; Chemicon) and immunoreactive bands were detected by […] secondary antibody and enhanced chemiluminescence. Quantitative densitometry analysis of protein bands was performed using the ScanAnalysis (Elsevier) programme.

[1] = test system: rats with chronic constriction injury (CCI); test: Sensitivity to noxious cold (4° C. water) in CCI animals with oligonucleotide infusion; assay type: in vivo, rat; conditions: at peak, control CCI 8.1±0.5 s
Experimental: Thermal sensitivity was assessed by measuring paw withdrawal latency (PWL, s) in response to a noxious thermal stimulus (Hargreaves' thermal stimulator, Linton Instrumentation, Diss, UK) directed to the hindpaw mid-plantar glabrous surface. Mechanical sensitivity was recorded as the paw withdrawal threshold (PWT, mN/mm^2) to calibrated von Frey filaments (Stoelting, Ill., US), as previously described^[39]. Sensitivity to noxious cold was assessed by placing animals in a waterbath with an aluminium floor containing 1 cm deep 4° C. water and counting the time the paw was held suspended over a 20 s period.
Antisense and mis-sense oligonucleotides were 22-mers with phosphorothioate bonds at the last two positions at 5′ and 3′ ends (MWG Biotech, Ebersberg, Germany). Antisense extended from base −10 to base +12 relative to the start of the open reading frame for the rat TRPM8 gene: 5′ C*T*CGAAGGACATCTTGCCGT*G*G 3′, where * represents phosphorothioate linkages. Mis-sense was designed with 4 inversions of C/G or A/T as appropriate at residues 3, 11, 14 and 22, preserving overall G/C content. BLAST searches of both oligonucleotides indicated no significant complementarity to any known gene sequence. […]

5′ C*T*CGAAGGACATCTTGCCGT*G*G 3′ (antisense CTCGAAGGACATCTTGCCGTGG; linkages s2 o17 s2 (s phosphorothioate, o phosphodiester), sugars by position and methylation of C not given here) [TRPM8 antisense, 22-mer with phosphorothioate bonds, base −10 to +12 of rat TRPM8 open reading frame]
TRPM8:GAPDH ratio in DRG (TRPM8; contralateral to CCI): 14.9±2.1%
TRPM8:GAPDH ratio in DRG (TRPM8; ipsilateral to CCI): 19.8±2.2%
knockdown of the 128 kDa TRPM8 band in DRG (TRPM8; naïve rats, intrathecal delivery over 5 days): almost complete knockdown
elevation of the paw ipsilateral to nerve injury out of 4° C. water [1]: 7.6 ± 0.6 s
